Experiment [1] has as its system Ba/F3 + BCR-Abl E225K mutant. Nature of the experiment: MTT growth inhibition, Ba/F3 + BCR-Abl E225K. In kind it is cell-based. As to conditions: 96 hrs. From the text:
Cultures of Ba/F3 cells were also transfected to express wild-type (WT) Bcr-Abl, E255K mutation of Bcr-Abl, or T315I mutation of Bcr-Abl and cultured in 96-well plates in complete media without IL-3. The Ba/F3 cell line is rendered Gleevec resistant when the mutation in the Bcr/Abl tyrosine kinase […] is present. […] All assays are in triplicate.

Experiment [2] deals with 786-O. The experiment can be described thus: renal tumor cell growth inhibition, 786-O. As to conditions: renal cell adenocarcinoma. In kind it is cell-based, Human. On the procedure:
(§1) These GI50s were determined using standard tumor growth inhibition assays, similar to those described in detail in this Example 7.

Experiment [3] has as its system ACHN. Nature of the experiment: renal tumor cell growth inhibition, ACHN. The settings on record: renal cell adenocarcinoma. The format is cell-based, Human. As for the experimental part: as §1
Experiment [4] deals with ZAP70 Y319. The experiment can be described thus: whole cell phosphorylation, ZAP70. In kind it is cell-based. As to conditions: whole cells.
Experiment [5] concerns SW1088. Nature of the experiment: brain tumor cell growth inhibition, SW1088. In kind it is cell-based, Human. As to conditions: SW1088, astrocytoma; read-out: IC50 (title: GI50).
Experiment [6] deals with HCT116. The experiment can be described thus: MTT growth inhibition, Dasatinib-resistant HCT116. As to conditions: HCT116, 8.0×10^3 cells/well, […] FBS, 78 Hr. In kind it is cell-based, human.
Procedure: Cell proliferation/growth inhibition was assessed using MTT colorimetric assay.
On Day 3, 10 μL MTT (5 mg/mL) was added to each well. Cells were then incubated in the presence of MTT for 4 hours at 37° C., appropriate CO2 conditions. After this incubation period, 90 μL 10% SDS(+HCl) was added to each well to lyse cells and solubilize formazan. Cells were then incubated overnight at 37° C., appropriate CO2 conditions.
The OD570 was measured using microplate reader. Growth inhibition curves and EC50/IC50 was determined using GraphPad Prism 4 statistical software.
Experiment [7] deals with 769-P. The experiment can be described thus: renal tumor cell growth inhibition, 769-P. As to conditions: renal cell adenocarcinoma. The format is cell-based, Human. On the procedure:
as §1

The subject of experiment [8] is CCRF-HSB-2 (Adult lymphoblastic leukemia). The experiment can be described thus: growth inhibition, CCRF-HSB-2. In kind it is cell-based, Human. The settings on record: read-out: GI50.
Experiment [9] concerns Ba/F3 (IL-3 induced). The experiment can be described thus: MTT growth inhibition, Ba/F3 + IL-3. In kind it is cell-based. As to conditions: 96 hrs, read-out: GI50.
Experiment [10] concerns K562R (Gleevec resistant CML). Nature of the experiment: growth inhibition, K562R. In kind it is cell-based, Human.
The subject of experiment [11] is SK-N-MC. The experiment can be described thus: brain tumor cell growth inhibition, SK-N-MC. In kind it is cell-based, Human. As to conditions: neuroepithelioma, read-out: IC50 (title: GI50).
Experiment [12] relates to Daoy. Nature of the experiment: brain tumor cell growth inhibition, Daoy. The format is cell-based, Human. The settings on record: desmoplastic cerebellar medulloblastoma, read-out: IC50 (title: GI50).
Experiment [13] relates to HT29 (human colon cancer). The settings on record: KXO1 2.0 and 4 mg/kg bid vs Dasatinib 25 then 15 mg/kg bid, 28 days.
Experiment [14] relates to EGFR tyrosine kinase autophosphorylation. Nature of the experiment: EGFR tyrosine kinase autophosphorylation in cells. The format is cell-based. The settings on record: tumor cells, FIG. 9, EGF Y845. As for the experimental part: (§2) HT29 (colon cancer) and c-Src527F/NIH-3T3 (Src transformed) cell lines were treated with KX2-391 or with AstraZeneca's ATP competitive Src inhibitor AZ28. AZ28 serves as a positive comparator to show what a validated Src inhibitor should do in these assays. After treatment with compound, cells were lysed, subjected to PAGE and probed with a battery of antibodies. […] In addition, off-target protein phosphorylation was also investigated. Further, induction of apoptosis was evaluated via Caspase 3 cleavage. Multiple doses of each compound were tested because the trends in response to increasing drug concentration are the most reliable indicator of activity.
(§3) The same range of multiples of the GI50 for AZ28 in these two cell lines was run as a comparison.
This site is not a direct Src phosphorylation site.

Experiment [15] addresses isolated FAK (Homo sapiens, UniProt Q05397). Nature of the experiment: titration against isolated FAK. As to conditions: titration data. The format is biochemical.
In experiment [16] the target is Yes(h) (Homo sapiens, UniProt P07947). Nature of the experiment: isolated kinase activity, Yes. The format is biochemical. As to conditions: compound @ 10 μM. From the text:
(§4) Table 8 illustrates percent activity of isolated kinases in the presence of the AstraZeneca ATP-competitive inhibitor (KX2-328, AZ-28) or KX2-391 relative to control (untreated) isolated kinases.

Experiment [17] relates to total phosphotyrosine levels. Nature of the experiment: total phosphotyrosine levels. The format is cell-based. As to conditions: HT29 and c-Src527F/NIH-3T3 cells. On the procedure:
as §2, §3

In experiment [18] the target is EGFR(h) (Homo sapiens, UniProt P00533). Nature of the experiment: isolated kinase activity, EGFR. The format is biochemical. As to conditions: compound @ 10 μM.
Chain of EGFR(h) (P00533 25-1210): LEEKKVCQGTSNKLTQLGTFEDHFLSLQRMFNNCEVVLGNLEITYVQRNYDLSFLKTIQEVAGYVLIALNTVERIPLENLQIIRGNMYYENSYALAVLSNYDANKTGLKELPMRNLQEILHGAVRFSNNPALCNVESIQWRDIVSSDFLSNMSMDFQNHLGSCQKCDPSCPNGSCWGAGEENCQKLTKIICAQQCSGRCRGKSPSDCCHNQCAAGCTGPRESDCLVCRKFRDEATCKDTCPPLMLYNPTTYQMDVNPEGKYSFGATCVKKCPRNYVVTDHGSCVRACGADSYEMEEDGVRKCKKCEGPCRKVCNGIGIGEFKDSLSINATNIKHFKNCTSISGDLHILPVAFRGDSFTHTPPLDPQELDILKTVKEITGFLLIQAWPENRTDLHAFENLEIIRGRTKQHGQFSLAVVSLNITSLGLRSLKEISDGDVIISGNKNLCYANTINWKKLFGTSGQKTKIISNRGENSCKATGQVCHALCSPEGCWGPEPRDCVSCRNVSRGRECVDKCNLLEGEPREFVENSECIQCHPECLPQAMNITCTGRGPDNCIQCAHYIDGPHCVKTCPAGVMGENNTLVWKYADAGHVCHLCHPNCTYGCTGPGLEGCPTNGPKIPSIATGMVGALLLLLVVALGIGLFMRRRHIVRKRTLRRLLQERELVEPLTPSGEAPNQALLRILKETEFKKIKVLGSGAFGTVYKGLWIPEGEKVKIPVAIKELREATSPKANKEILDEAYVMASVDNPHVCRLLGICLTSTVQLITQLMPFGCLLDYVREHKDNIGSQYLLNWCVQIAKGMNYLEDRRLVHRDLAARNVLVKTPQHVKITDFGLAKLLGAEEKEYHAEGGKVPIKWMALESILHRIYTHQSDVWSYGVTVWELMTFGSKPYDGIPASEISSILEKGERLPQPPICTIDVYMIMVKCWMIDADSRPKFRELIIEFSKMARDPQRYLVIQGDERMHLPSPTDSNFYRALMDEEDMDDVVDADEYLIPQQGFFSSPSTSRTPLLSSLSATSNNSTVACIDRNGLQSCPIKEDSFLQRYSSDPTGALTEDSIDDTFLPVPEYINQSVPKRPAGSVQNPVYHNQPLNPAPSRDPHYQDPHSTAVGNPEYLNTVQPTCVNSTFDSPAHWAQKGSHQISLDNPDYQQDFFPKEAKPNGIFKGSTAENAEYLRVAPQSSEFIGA
From the text: as §4

The target of experiment [19] is IR(h) (Homo sapiens, UniProt P06213). Nature of the experiment: isolated kinase activity, IR. The settings on record: compound @ 10 μM. The format is biochemical.
Chain of IR(h) (P06213 28-1382): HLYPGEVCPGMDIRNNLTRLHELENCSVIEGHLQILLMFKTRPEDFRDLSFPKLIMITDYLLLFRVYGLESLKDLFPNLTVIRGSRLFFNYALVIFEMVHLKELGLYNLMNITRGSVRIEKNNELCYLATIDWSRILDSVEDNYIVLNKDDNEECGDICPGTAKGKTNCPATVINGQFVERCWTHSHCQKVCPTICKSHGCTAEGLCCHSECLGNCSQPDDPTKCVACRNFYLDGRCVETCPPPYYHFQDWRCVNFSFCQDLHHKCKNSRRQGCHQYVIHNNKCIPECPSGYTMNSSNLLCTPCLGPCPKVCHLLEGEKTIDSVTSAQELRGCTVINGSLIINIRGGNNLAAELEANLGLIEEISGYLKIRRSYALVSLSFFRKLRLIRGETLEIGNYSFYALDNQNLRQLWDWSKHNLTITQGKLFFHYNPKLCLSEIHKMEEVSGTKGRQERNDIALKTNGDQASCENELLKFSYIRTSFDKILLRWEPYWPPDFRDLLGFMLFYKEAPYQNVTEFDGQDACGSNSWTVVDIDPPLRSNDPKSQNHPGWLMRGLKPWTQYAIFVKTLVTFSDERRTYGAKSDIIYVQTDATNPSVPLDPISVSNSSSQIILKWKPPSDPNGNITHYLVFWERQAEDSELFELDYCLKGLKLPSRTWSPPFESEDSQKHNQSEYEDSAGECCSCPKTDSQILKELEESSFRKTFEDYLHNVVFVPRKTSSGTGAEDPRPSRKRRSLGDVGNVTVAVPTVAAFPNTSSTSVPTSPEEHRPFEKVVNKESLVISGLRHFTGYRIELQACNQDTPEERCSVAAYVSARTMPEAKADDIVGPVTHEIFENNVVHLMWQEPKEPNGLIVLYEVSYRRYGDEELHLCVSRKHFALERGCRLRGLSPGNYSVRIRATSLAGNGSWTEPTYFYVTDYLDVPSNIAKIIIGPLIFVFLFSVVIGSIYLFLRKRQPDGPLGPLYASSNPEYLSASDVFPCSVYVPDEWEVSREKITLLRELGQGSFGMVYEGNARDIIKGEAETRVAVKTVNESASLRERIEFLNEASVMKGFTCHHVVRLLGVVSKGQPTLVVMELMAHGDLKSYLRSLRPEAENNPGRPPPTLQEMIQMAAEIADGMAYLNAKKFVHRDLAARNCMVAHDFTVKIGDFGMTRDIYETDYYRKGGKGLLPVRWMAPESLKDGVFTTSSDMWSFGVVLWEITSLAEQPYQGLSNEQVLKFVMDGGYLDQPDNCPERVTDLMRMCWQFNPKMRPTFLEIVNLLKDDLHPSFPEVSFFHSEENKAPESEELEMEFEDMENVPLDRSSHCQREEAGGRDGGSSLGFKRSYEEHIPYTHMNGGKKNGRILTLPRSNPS
From the text: as §4

Experiment [20] concerns the target PKCα(h) (Homo sapiens, UniProt P17252). The experiment can be described thus: isolated kinase activity, PKCα. In kind it is biochemical. The settings on record: compound @ 10 μM.
From the text: as §4

The subject of experiment [21] is PI3 kinase. Nature of the experiment: isolated kinase activity, PI3 kinase. As to conditions: compound @ 10 μM. The format is biochemical.
From the text: as §4

Broadly, the GI50 is the concentration that inhibits growth by half. Broadly, the IC50 is the concentration that inhibits the measured activity by half. The term IC80 denotes the concentration at which the effect reaches the 80% level. High values mean a need for much substance, low ones an effect from little substance. By IC90 is commonly meant the point of the concentration-response curve where the effect stands at 90%. A lower IC90 goes with greater potency.

Chain of Yes(h) (P07947 whole entry): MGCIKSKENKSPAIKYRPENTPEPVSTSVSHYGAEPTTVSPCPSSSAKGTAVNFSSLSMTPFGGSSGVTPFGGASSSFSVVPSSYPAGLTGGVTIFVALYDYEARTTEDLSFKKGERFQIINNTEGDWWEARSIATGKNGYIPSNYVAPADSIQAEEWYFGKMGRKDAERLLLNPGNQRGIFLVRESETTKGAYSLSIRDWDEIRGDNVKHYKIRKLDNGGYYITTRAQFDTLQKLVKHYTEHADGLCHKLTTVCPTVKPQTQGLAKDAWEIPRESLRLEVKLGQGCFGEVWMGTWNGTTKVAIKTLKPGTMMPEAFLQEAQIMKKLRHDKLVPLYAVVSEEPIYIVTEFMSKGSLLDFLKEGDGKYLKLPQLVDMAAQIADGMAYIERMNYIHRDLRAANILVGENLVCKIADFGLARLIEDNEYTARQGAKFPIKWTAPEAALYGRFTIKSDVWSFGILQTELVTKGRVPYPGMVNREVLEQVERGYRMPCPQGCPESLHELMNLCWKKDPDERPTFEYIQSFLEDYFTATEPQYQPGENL
Chain of isolated FAK (Q05397 whole entry): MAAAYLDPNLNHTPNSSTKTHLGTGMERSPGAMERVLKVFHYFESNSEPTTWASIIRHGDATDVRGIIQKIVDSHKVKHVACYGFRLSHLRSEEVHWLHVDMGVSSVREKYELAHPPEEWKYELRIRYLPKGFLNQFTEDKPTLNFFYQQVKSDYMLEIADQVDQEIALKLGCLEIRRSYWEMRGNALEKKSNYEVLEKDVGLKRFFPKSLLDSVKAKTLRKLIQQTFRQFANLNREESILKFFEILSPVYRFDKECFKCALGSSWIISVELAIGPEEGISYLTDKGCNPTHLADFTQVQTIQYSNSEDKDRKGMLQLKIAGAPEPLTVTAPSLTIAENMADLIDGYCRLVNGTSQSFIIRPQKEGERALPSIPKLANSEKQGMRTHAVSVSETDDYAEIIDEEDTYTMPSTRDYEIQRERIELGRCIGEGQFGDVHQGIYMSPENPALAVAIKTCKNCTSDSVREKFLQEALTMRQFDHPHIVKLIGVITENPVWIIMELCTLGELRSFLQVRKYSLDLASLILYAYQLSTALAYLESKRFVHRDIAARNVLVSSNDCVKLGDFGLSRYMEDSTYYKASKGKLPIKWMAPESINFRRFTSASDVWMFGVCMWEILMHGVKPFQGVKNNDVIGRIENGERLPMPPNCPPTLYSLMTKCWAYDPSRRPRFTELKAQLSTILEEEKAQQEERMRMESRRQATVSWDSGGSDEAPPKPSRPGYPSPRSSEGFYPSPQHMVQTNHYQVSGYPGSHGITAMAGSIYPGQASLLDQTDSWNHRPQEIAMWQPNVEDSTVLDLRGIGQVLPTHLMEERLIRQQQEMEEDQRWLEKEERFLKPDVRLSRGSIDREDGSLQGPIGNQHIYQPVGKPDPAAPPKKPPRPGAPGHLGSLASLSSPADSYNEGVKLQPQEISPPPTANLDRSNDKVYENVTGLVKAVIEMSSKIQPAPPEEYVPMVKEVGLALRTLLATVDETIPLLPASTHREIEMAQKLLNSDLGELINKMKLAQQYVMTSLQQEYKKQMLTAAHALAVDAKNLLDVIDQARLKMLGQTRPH

With `O=C(Cc1ccc(-c2ccc(OCCN3CCOCC3)cc2)cn1)NCc1ccccc1` [KXO1], the GI50 in [1] was 80 nM; in experiment [2] it was 378 nM; in experiment [3], 33.2 nM; in [7] it was 45 nM; in [8], 12 nM; in experiment [9], 3.5 nM. The molecule further had a GI50 in experiment [10] of 0.64 nM. Further, the “phosphorylation of ZAP70 Y319” value in experiment [4] is “not inhibited”. The IC50 is 76.1 nM in experiment [5], 31 nM in experiment [6], 5.8 nM in experiment [11] and 13.6 nM in experiment [12]. Besides, the 80% effect level in [6] (IC80) was put at 106 nM. In addition, the 90% effect level in experiment [6] (IC90) was put at 195 nM. For the same molecule, in experiment [13], the “oral potency in staged HT29 mouse xenografts” value is listed as “higher oral potency”. Moreover, the results for the “EGFR tyrosine kinase autophosphorylation” value in experiment [14] and in experiment [14] (listed as KX-391) were “not inhibited” and “less active”, respectively.

With `O=C(Cc1ccc(-c2ccc(OCCN3CCOCC3)cc2)cn1)NCc1ccccc1` [KX2-391], in experiment [15], the half-maximal inhibitory concentration (IC50) is more than 48 µM. For the same molecule, the “percent activity of isolated kinase relative to control” value was found to be 92% in experiment [16]; 134% in experiment [18]; 112% in experiment [19]; 111% in experiment [20]; 100% in experiment [21]. For the same molecule, the total phosphotyrosine levels entry in experiment [17] is on record as “reduction in the total phosphotyrosine levels”.

These data come from patent US10196357B2, “Biaryl compositions and methods for modulating a kinase cascade” (Athenex, Inc., priority 2007, dated 2019).
